Measured values as given in patent US8354405B2, “6-cycloamino-3-(pyrid-4-yl)imidazo[1,2-b]pyridazine derivatives, preparation thereof and therapeutic use thereof” (Sanofi, priority 2007, dated 2013).

How the values were obtained:
human CK1 delta = target: T1, human CK1 delta (Homo sapiens, UniProt P48730); experiment: FRET fluorescence test, Z'Lyte kinase assay kit, CK1 delta; assay type: biochemical; details: peptide SER/THR 11 2 μM, ATP 4 times KM
T1 construct: purchased Invitrogen Corporation PV3665
From the text: The capacity of the compounds of the invention to inhibit the phosphorylation of casein by the casein kinases 1 epsilon and delta may be evaluated using an FRET (Fluorescence Resonance Energy Transfer) fluorescence test with the aid of the “Z′Lyte™ kinase assay kit” (reference PV3670; Invitrogen Corporation™) according to the manufacturer's instructions.
The casein kinases 1 used are obtained from Invitrogen Corporation (human CK1 epsilon PV3500 and human CK1 delta PV3665).
A peptide substrate, labeled at both ends with a fluorophore-donating group (coumarin) and a fluorophore-accepting group (fluorescein) constituting an FRET system is […] in the presence of ATP by casein kinase 1 epsilon or delta in the presence of increasing concentrations of compounds of the invention.
The mixture is treated with a site-specific protease that specifically cleaves the substrate peptide to form two fluorescent fragments having a large fluorescence emission ratio.
The fluorescence observed is thus related to the capacity of the products of the invention to inhibit the phosphorylation of the substrate peptide by casein kinase 1 epsilon or casein kinase 1 delta.
The compounds of the invention are dissolved at different concentrations starting with a 10 mM stock solution in DMSO diluted in a buffer containing 50 mM HEPS, pH 7.5, 1 mM EGTA, 0.01% Brij-35, 10 mM MgCl2 for casein kinase 1 epsilon and supplemented with Trizma Base (50 mM), pH 8.0 and NaN3 (0.01% final) for casein kinase 1 delta.
The phosphorylation of the substrate peptide SER/THR 11 obtained from Invitrogen Corporation™ is performed at a final concentration of 2 μM. The ATP concentration is 4 times the KM, this value being 2 μM for casein kinase 1 epsilon and 4 μM for casein kinase 1 delta.
The emitted fluorescence is measured at wavelengths of 445 and 520 nm (excitation at 400 nm).

[1] = target: casein kinase 1 epsilon (CK1 epsilon) (Homo sapiens, UniProt P49674); experiment: Filter-plate assay of ATP-33P for CK1 epsilon inhibitors (casein phosphorylation); assay type: biochemical; details: inhibition of phosphorylation of casein, ATP-33P filter-plate, ATP 10 μM
Procedure: The capacity of the compounds of the invention to inhibit the phosphorylation of casein by casein kinases 1 epsilon and delta may be evaluated according to the procedure described in document US 2005/0 131 012.
Filter-Plate Assay of ATP-^33P for the Screening of CK1 Epsilon Inhibitors:
The effect of the compounds on inhibition of the phosphorylation of casein by the enzyme casein kinase 1 epsilon (CK1 epsilon) is measured, using a casein assay via filtration of ATP-^33P in vitro.
Casein kinase 1 epsilon (0.58 mg/ml) is obtained via fermentation and purification processes performed according to methods that are well known to those skilled in the art, or may also be obtained from Invitrogen Corporation™ (human CK1 epsilon).
The compounds are tested at five different concentrations so as to generate IC50 values, i.e. the concentration at which a compound is capable of inhibiting the enzymatic activity by 50%, or alternatively the percentage of inhibition at a concentration of 10 micromolar.
“U”-bottomed Falcon plates are prepared by placing 5 μL of solutions of the compounds according to the invention at concentrations of 10, 1, 0.1, 0.01 or 0.001 μM in different wells. The solutions of the compounds according to the invention at these various concentrations are prepared by diluting in a test buffer (Tris 50 mM pH 7.5, MgCl2 […], DTT 2 mM and EGTA 1 mM) a stock solution in DMSO at a concentration of 10 mM. Next, 5 μL of dephosphorylated casein are added to a final concentration of 0.2 μg/μL, 20 μL of CK1 epsilon to a final concentration of 3 ng/μL, and 20 μL of ATP-^33P to a final concentration of 0.02 μCi/μL mixed with cold ATP (10 μM final—approximately 2×10^6 CPM per well). The final total test volume per well is equal to 50 μL.
The “U”-bottomed Falcon® test plate mentioned above is vortexed, and then incubated at room temperature for 2 hours. After 2 hours the reaction is stopped by adding an ice-cold solution of 65 μL of cold ATP (2 mM) prepared in test buffer.
100 μL of the reaction mixture are then transferred from the “U”-bottomed Falcon® plate into Millipore® MAPH filter plates, preimpregnated with 25 μL of ice-cold 100% TCA.
The Millipore MAPH filter plates are agitated gently and are left to stand at room temperature for at least 30 minutes to precipitate the proteins.
After 30 minutes, the filter plates are sequentially washed and filtered with 2×150 μL of 20% TCA, 2×150 μL of 10% TCA and 2×150 μL of 5% TCA (6 washes in total per plate/900 μL per well).
The plates are left to dry overnight at room temperature. Next, 40 μL of Microscint-20 Packard® scintillation liquid are added per well and the plates are closed in a leak tight manner. The radiation emitted by each well is then measured for 2 minutes in a TopCount NXT Packard® scintillation counter, in which the values of CPM/well are measured.
The percentage inhibition of the capacity of the enzyme to phosphorylate the substrate (casein) is determined for each concentration of test compound. These inhibition data expressed as percentages are used to calculate the IC50 value for each compound compared with the controls.
The kinetic studies determined the KM value for ATP as being 21 μM in this test system.

[2] = system: Mper1-luc Rat-1 (P2C4) fibroblasts; experiment: Circadian cell assay (mPer1-luciferase reporter, period prolongation); assay type: cell-based; details: effective concentration that induces a 1-hour prolongation of the circadian period
Procedure: Experimental Protocols for Circadian Cell Assay
Mper1-luc Rat-1 (P2C4) fibroblast cultures were prepared by dividing the cultures every 3-4 days (about 10-20% of confluence) on 150 cm^2 degassed polystyrene tissue culture flasks (Falcon® #35-5001) and maintained in growth medium [EMEM (Cellgro #10-010-CV); 10% fetal bovine serum (FBS; Gibco #16000-044); and 50 I.U./mL of penicillin-streptomycin (Cellgro #30-001-CI)] at 37° C. and under 5% CO2.
Cells obtained from Rat-1 fibroblast cultures at 30-50% of confluence as described above were co-transfected with vectors containing the selection marker for resistance to zeocin for a stable transfection and a luciferase reporter gene directed by the promoter mPer-1. After 24 to 48 hours, the cultures were divided on 96-well plates and maintained in growth medium supplemented with 50-100 μg/mL of zeocin (Invitrogen® #45-0430) for 10-14 days. The zeocin-resistant stable transfectants were evaluated for expression of the reporter by adding to the growth medium luciferin 100 μM (Promega® #E1603®) and by assaying the luciferase activity on a TopCount® scintillation counter (Packard model #C384V00). The Rat-1 cell clones expressing both zeocin resistance and luciferase activity directed by mPer1 were serum-shock synchronized with 50% horse serum [HS (Gibco® #16050-122)] and the activity of the circadian reporter was evaluated. The P2C4 clone of fibroblasts Mper1-luc Rat-1 was selected to test the compound.
The Mper1-luc Rat-1 (P2C4) fibroblasts at 40-50% of confluence obtained according to the protocol described above were plated out onto 96-well opaque tissue culture plates (Perkin Elmer® #6005680). The cultures are maintained in growth medium supplemented with 100 μg/mL of zeocin (Invitrogen #45-0430) until they reached 100% of confluence (48-72 hours). The cultures were then synchronized with 100 μL of synchronization medium [EMEM (Cellgro #10-010-CV); 100 I.U./mL of penicillin-streptomycin (Cellgro #30-001-C1); 50% HS (Gibco #16050-122)] for 2 hours at 37° C. and under 5% CO2. After synchronization, the cultures were rinsed with 100 μL of EMEM (Cellgro #10-010-CV) for 10 minutes at room temperature. After rinsing, the medium is replaced with 300 μL of CO2-independent medium [CO2I (Gibco #18045-088); L-glutamine 2 mM (Cellgro #25-005-C1); 100 U.I./mL of penicillin-streptomycin (Cellgro #30-001-C1); luciferin 100 μM (Promega #E 1603)]. […]
The two methods produced a virtually identical period estimation on a range of circadian periods. […] The data were analyzed by adjusting a hyperbolic curve to the data expressed as change of period (y-axis) as a function of the concentration of the test compound (x-axis) in the XLfit™ software and the CE Delta (t+1 h) was interpolated from this curve.

T1 sequence (P48730 whole entry): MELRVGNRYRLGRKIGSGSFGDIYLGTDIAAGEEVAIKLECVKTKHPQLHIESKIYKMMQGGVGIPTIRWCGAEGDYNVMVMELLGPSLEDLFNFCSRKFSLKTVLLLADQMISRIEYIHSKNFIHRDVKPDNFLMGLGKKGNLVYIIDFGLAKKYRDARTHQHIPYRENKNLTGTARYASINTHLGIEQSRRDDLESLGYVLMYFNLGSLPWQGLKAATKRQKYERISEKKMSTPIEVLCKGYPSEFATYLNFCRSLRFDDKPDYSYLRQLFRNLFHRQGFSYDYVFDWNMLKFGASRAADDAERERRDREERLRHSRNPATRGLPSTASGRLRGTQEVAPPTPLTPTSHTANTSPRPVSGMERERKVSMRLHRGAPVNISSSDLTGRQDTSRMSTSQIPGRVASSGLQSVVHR
Chain of casein kinase 1 epsilon (CK1 epsilon) (P49674 whole entry): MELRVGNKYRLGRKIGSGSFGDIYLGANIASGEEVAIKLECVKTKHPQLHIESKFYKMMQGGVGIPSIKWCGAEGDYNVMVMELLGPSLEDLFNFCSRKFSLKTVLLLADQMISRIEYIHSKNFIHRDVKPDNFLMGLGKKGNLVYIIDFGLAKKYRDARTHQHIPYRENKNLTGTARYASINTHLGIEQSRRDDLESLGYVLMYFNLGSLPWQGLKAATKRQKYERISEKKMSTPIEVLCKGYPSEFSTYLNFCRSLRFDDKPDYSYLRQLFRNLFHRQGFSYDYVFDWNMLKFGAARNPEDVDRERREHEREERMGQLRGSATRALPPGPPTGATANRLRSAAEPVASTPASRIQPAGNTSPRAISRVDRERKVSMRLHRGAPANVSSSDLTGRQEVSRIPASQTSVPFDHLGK

| Molecule | melting point | IC50 (human CK1 delta) | IC50 [1] | CE Delta (t + 1 h) [2] |
| --- | --- | --- | --- | --- |
| CC(C)N1CCN(c2ccc3nc(-c4ccc(Cl)cc4)c(-c4ccnc(N)c4)n3n2)CC1 [Compound 81, 4-[2-(4-Chlorophenyl)-6-(4-isopropylpiperazin-1-yl)imidazo[1,2-b]pyridazin-3-yl]pyrid-2-ylamine] | 236 to 239 °C | 59 to 110 nM |  |  |
| {4-[2-(4-Fluorophenyl)-6-((R)-3-methylpiperazin-1-yl)imidazo[1,2-b]pyridazin-3-yl]pyrid-2-yl}methylamine [Compound 153] |  |  | 8 nM | 2 to 9 nM |
| Cc1c(N2CCNCC2)nn2c(-c3ccncc3)c(-c3ccc(F)cc3)nc2c1C [Compound 3, 2-(4-Fluorophenyl)-7,8-dimethyl-6-piperazin-1-yl-3-pyrid-4-ylimidazo[1,2-b]pyridazine] |  |  | 1 nM |  |
| c1ccc(-c2nc3ccc(N4CCC(N5CCCC5)CC4)nn3c2-c2ccncc2)cc1 [Compound 147, 2-Phenyl-3-pyrid-4-yl-6-(4-pyrrolidin-1-ylpiperid-1-yl)-imidazo[1,2-b]pyridazine] |  | 50 to 53 nM | 22 to 116 nM |  |
| CN(C)C1CCN(c2ccc3nc(-c4ccc(F)cc4)c(-c4ccncc4)n3n2)CC1 [Compound 146, {1-[2-(4-Fluorophenyl)-3-pyrid-4-ylimidazo[1,2-b]pyridazin-6-yl]piperid-4-yl}dimethylamine] | 193 to 195 °C |  |  | 39 nM |
| Fc1ccc(-c2nc3ccc(N4CC5CN(C6CC6)CC5C4)nn3c2-c2ccncc2)cc1 (stereo not shown) [Compound 115, 6-(5-Cyclopropylhexahydropyrrolo[3,4-c]pyrrol-2(1H)-yl)-2-(4-fluorophenyl)-3-pyrid-4-ylimidazo[1,2-b]pyridazine] | 204 to 206 °C |  |  | 2 nM |
| CN1CCN(c2ccc3nc(-c4ccc(F)cc4)c(-c4ccncc4)n3n2)CC1 [Compound 50, 2-(4-Fluorophenyl)-6-(4-methylpiperazin-1-yl)-3-pyrid-4-ylimidazo[1,2-b]pyridazine] |  | 5 nM |  | 28 nM |
| CC1(C)CN(c2ccc3nc(-c4cc(F)cc(F)c4)c(-c4ccncc4)n3n2)CCN1 [Compound 31, 2-(3,5-Difluorophenyl)-6-(3,3-dimethylpiperazin-1-yl)-3-pyrid-4-ylimidazo[1,2-b]pyridazine] |  | 91 to 93 nM |  |  |
| Cc1cc(C)cc(-c2nc3ccc(N4CCNC(C)(C)C4)nn3c2-c2ccnc(N)c2)c1 [Compound 30, 4-[2-(3,5-Dimethylphenyl)-6-(3,3-dimethylpiperazin-1-yl)imidazo[1,2-b]pyridazin-3-yl]pyrid-2-ylamine] |  |  | 60 nM |  |
| c1ccc(-c2nc3ccc(N4CCNCC4)nn3c2-c2ccncc2)cc1 [Compound 1, 2-Phenyl-6-piperazin-1-yl-3-pyrid-4-ylimidazo[1,2-b]pyridazine] |  |  | 3 nM |  |
